# Test results published in US20120045522A1 (priority 2010, published 2012).
# Columns and labels:
# [1] = tested on: Leptosphaeria nodorum (LEPTNO); assay: In vitro fungitoxicity (growth inhibition) assay in copper-minus / copper-plus liquid medium; type: cell-based; details: for inhibition of growth at 0.05 µg/mL: Parastagonospora nodorum, copper-minus medium, light scattering, read-out: LEPTNO % Inhn. Minus Copper Observed; for inhibition of growth at 0.05 µg/mL / LEPTNO % Inhn. Plus Copper Observed: test compound at 0.05 μg/mL, 72 h at 25° C.; for LEPTNO % Inhn. Plus Copper Observed: copper-plus medium (CuCl2.2H2O)
# Procedure: In vitro fungitoxicity assays against Leptosphaeria nodorum (LEPTNO) were conducted using the liquid growth medium described by Coursen and Sisler (American Journal of Botany 1960, 47, 541-549) except that copper micronutrient, normally included as CuSO4, was omitted. The medium, termed “copper-minus,” was prepared by dissolving 10 g glucose, 1.5 g K2HPO4, 2 g KH2PO4 and 1 g (NH4)2SO4 in 1 liter of deionized water and treating the solution with 0.5 g Chelex 100 resin (Bio-Rad Analytical grade, 50-100 mesh, sodium form, cat#142-2822) by stirring at room temperature for 1 h. MgSO4.7H2O (0.5 g) was added, and stirring was continued for a further hour. Trace elements (minus CuSO4), and vitamins described by Coursen and Sisler were added from concentrated stock solutions and the entire medium was sterilized by filtration. Medium containing copper was prepared by adding CuCl2.2H2O to the copper-minus medium at 20 μM. Test compounds were dissolved in dimethylsulfoxide (DMSO) at 10 μg/mL and 1 μL aliquots were added to two wells of flat-bottomed 96-well microtiter plates. Copper-minus medium (100 μL) was added to one of the wells and copper-plus medium to the second well. Control wells, included for each medium, received 1 μL DMSO and 100 μL of medium.
# LEPTNO was grown on potato dextrose agar in 9 cm diameter petri dishes for 7 days. Sterile deionized water (20 mL) was added to a culture plate and spores suspended by scraping the surface gently with a sterile plastic loop. The resulting suspension was filtered through a double layer of sterile cheesecloth. Filtered spore suspension (5 mL) was centrifuged in a bench centrifuge at 2000 rpm for 2 min. The resulting spore pellet was resuspended in 10 mL sterile deionized water (which had been treated with Chelex 100 resin using 0.5 g resin per liter of water by stirring at room temperature for 1 h), and recentrifuged. The spores were resuspended in copper-minus medium, and the suspension adjusted to 2×10^5 spores per mL. Microtiter plates were inoculated with 100 μL of this spore suspension and the plates incubated at 25° C. for 72 h before assessing fungal growth by measuring light scattering in a NepheloStar plate reader. Growth inhibition was determined by comparing growth in the presence of test compound with growth in control wells lacking test compound.
# Results for growth inhibition by test compounds at 0.05 μg/mL in copper-plus medium (% Inhn. Plus Copper Observed) were compared with predicted values (% Inhn. Plus Copper Predicted) that were calculated using the formula set forth by S. R. Colby in Weeds 1967, 15, 20-22 based on results obtained for the same compounds in copper-minus medium (% Inhn. Minus Copper Observed) and the inhibition attributed to copper chloride alone, as determined by comparing growth in copper-minus and copper-plus media without any test compound across experiments. Results illustrate that hydrazones and copper produce a synergistic fungitoxic effect towards LEPTNO.
# Phytophthora infestans = type: in vivo; details: hydrazone 50 ppm plus 50 μM CuCl2.2H2O, applied 24 h before inoculation, assessed 7 days after inoculation, tomato plants
SMILES,inhibition of growth at 0.05 µg/mL [1] [%],LEPTNO % Inhn. Plus Copper Observed [1] [%],TLB % control (Phytophthora infestans) [%],melting point [°C],"LEPTNO % inhibition attributed to copper chloride alone ([1]; CuCl2 10 μM, no test compound, growth in copper-plus vs copper-minus medium across experiments) [%]"
"Cc1ccc(C(=O)N/N=C2\CCc3c(Cl)cc(Cl)c(O)c32)cc1 [Compound 1, 4-Methylbenzoic acid [4,6-dichloro-7-hydroxy-indanylidine]hydrazide]",15.2,96.8,78,218 to 222,–
O=C(N/N=C1\CCc2c(Cl)cc(Cl)c(O)c21)c1ccc(Cl)cc1 [Compound 2],16.7,96.8,78,252 to 255,–
O=C(N/N=C1\CCc2c(Cl)cc(Cl)c(O)c21)c1ccccc1O [Compound 3],24.9,97.1,55,285 to 290,–
COc1ccc(C(=O)N/N=C2\CCc3c(Cl)cc(Cl)c(O)c32)cc1 [Compound 4],3.5,96.6,64,230 to 233,–
O=C(N/N=C1\CCc2c(Cl)cc(Cl)c(O)c21)c1ccc(C(F)(F)F)cc1 [Compound 5],20.7,97.2,53,245 to 248,–
O=C(N/N=C1\CCc2c(Cl)cc(Cl)c(O)c21)c1ccccc1 [Compound 6],23.1,94.1,95,243 to 245,–
O=C(N/N=C1\CCc2cccc(O)c21)c1ccccc1 [Compound 7],0,95.3,61,192 to 194,–
Cc1ccc(C(=O)N/N=C2\CCc3c(Cl)cc(Cl)c(O)c32)c(O)c1 [Compound 8],0,96.9,69,284 to 288,–
"O.O.[Cl][Cu][Cl] [CuCl2, CuCl2.2H2O, reference compound]",–,–,–,–,13.2
